Experimental data as given in patent US7838695B2, “Neuroactive substance and uses of one such substance” (Universite de Nantes, priority 2003, dated 2010).
Entries after “also recorded” stand apart in the source; their conditions may differ.

How the values were obtained:
[1] = tested on: low voltage activated calcium channels (LVA); test: Overall LVA calcium current in DUM neurons (patch-clamp); type: cell-based, Periplaneta americana; details: +50 mV depolarising pulse from −100 mV reference potential
[2] = tested on: transient LVA calcium channels (tLVA); test: tLVA calcium current in DUM neurons (overall LVA minus mLVA); type: cell-based, Periplaneta americana
[3] = tested on: high voltage activated calcium channels (HVA); test: HVA calcium current in DUM neurons (patch-clamp); type: cell-based, Periplaneta americana
[4] = tested on: maintained LVA calcium channels (mLVA); test: mLVA calcium current in DUM neurons in the presence of nickel chloride (patch-clamp); type: cell-based, Periplaneta americana; details: in the presence of 100 μm nickel chloride
cockroach DUM neurons [5] = test: Electrical activity of DUM neurons activated by injecting depolarising current; type: cell-based, Periplaneta americana
Method: A second experiment was conducted on dorsal unpaired median neurons (DUM neurons) from the central nervous system of cockroaches (Periplaneta americana). In particular, these neurons secrete a biogenous amine, octopamine, a neuromediator wherein the chemical structure is similar to […] in vertebrates. They represent a good study model as they display electrophysiological properties similar to those of dopaminergic neurons in vertebrates. These DUM neurons are isolated from the medio-dorsal line of the last terminal abdominal ganglion of the nerve chain of adult male cockroaches, by means of enzyme digestion and mechanical dissociation, according to the technique described by […] et al (J. Exp. Biol., 1989, 144; 535-549). The neurons isolated in this way are kept in culture at 29° C. for 24 hrs before testing. The whole cell configuration patch-clamp technique is used to measure the electrical activity and the calcium currents (imposed potential and/or current conditions) according to the model described by Grolleau and […]. Neurophysiol. 1995, 73; 160-171). Experiments were also conducted on an electrical activity activated by injecting a level of depolarising current controlled in amplitude and duration (FIG. 6). The results obtained under these conditions are in agreement with the experiments conducted on spontaneous activity. […]

[6] = tested on: axonal cockroach sodium and potassium channels; test: Isolated giant axon under imposed potential and imposed current; type: cell-based, Periplaneta americana
Method: Firstly, the neuronal sodium and potassium channels were studied. These channels are involved in action potential generation. This study was conducted on cockroach (Periplaneta americana) giant axons. The giant axon of these cockroaches was isolated in ventral abdominal nerve chain connective tissue. During the experiment, the axon is immersed in physiological fluid. The experiment is performed under imposed potential and imposed current in the absence and presence of the substance according to formula (II).

[7] = tested on: Phormia terrae novae larvae; test: Neuroactivity test by injection in Diptera larvae; type: in vivo
Method: The neuroactivity of the substance according to formula (I) was then tested by injecting in Diptera larvae. Within this scope, the inventors used Phormia terrae novae species Cyloraphe larvae at larval stage III, just before the imago stage enabling metamorphosis to a pupa or nymph. […] The product is injected using a precision micro-syringe fitted with a bevelled hypodermic needle. The needle is inserted into the last abdominal segment of the animal on the dorsal side. The injection is deemed successful if the larva is still mobile at the tip of the needle. In this type of test, contraction or relaxation for at least 5 seconds is defined as a positive response, but the intensity and duration are dose-dependent while the absence of any symptom for 10 min represents a negative response. Substance (II) was tested by injecting a single 350 μg dose of product per larva (mean larva weight 70 mg), by injecting 7 A1 of a 50 mg/ml solution of the product in the 85-15 v/v water:DMSO mixture. This concentration was then diluted by half until no larval activity was detected.

cockroach DUM neurons [8] = test: Spontaneous pacemaker electrical activity of DUM neurons (whole cell patch-clamp); type: cell-based, Periplaneta americana
Method: A second experiment was conducted on dorsal unpaired median neurons (DUM neurons) from the central nervous system of cockroaches (Periplaneta americana). In particular, these neurons secrete a biogenous amine, octopamine, a neuromediator wherein the chemical structure is similar to […] in vertebrates. They represent a good study model as they display electrophysiological properties similar to those of dopaminergic neurons in vertebrates. These DUM neurons are isolated from the medio-dorsal line of the last terminal abdominal ganglion of the nerve chain of adult male cockroaches, by means of enzyme digestion and mechanical dissociation, according to the technique described by […] et al (J. Exp. Biol., 1989, 144; 535-549). The neurons isolated in this way are kept in culture at 29° C. for 24 hrs before testing. The whole cell configuration patch-clamp technique is used to measure the electrical activity and the calcium currents (imposed potential and/or current conditions) according to the model described by Grolleau and […]. Neurophysiol. 1995, 73; 160-171).

## CC(=O)O[C@@H]1CC[C@@]23O[C@@H]2[C@H](O)C[C@@H](C)[C@]3(C)[C@@H]1C(C)=O [substance according to formula (II), 6S-acetyl-4R,5R-dimethyl-1R(10S)-epoxy-2R-hydroxy-7R-acetoxydecahydronaphthalene]
[1]
  maintained component measured at the end of the depolarising pulse: not affected
[1]; n=7
  increase of amplitude of the overall LVA calcium current: 81%
[2]
  action on tLVA calcium channel: specific activator; also recorded: specific action; also recorded: potentiating
[3]; +90 mV depolarising pulse from −100 mV reference potential, n=7
  reduction of HVA calcium current amplitude: 9%
[3]; in the presence of 100 μm nickel chloride
  amplitude of the HVA current: neither the amplitude of the mLVA current (FIGS. 10 and 11) or that of HVA are modified
[4]
  amplitude of the mLVA current: neither the amplitude of the mLVA current (FIGS. 10 and 11) or that of HVA are modified
Cockroach DUM neurons [5]
  action potential amplitude or duration: No change
  discharge frequency: increase in the discharge frequency
[6]
  activity on axonal sodium and potassium channels (change on the action potential): no activity
[7]; calculated with molecular weight 296 g per mole
  MAC: approximately 1 mM/mg of larvae
[7]; injection into larvae, halving dilutions until no larval activity
  minimum active concentration on diptera larvae: 3.1 μg per μl and per 10 mg of larvae
Cockroach DUM neurons [8]; 4-AP 2 mM
  action potential amplitude: remains unchanged
  post-hyperpolarisation phase: increased
  pre-depolarisation slope: higher
Cockroach DUM neurons [8]; 100 μm substance, in the presence of 4-AP 2 mM
  action potential frequency increased by a factor: 2.1
